According to patent publication US20220187282A1, “CARDIOMYOCYTE PROLIFERATION” (The Council of the Queensland Institute of Medical Research, priority 2019, published 2022):
Like-named read-outs stand apart in the source and are kept apart here.

How the values were obtained:
Assay type in all cases: biochemical
kinases [1] = biological target: kinases (Homo sapiens, UniProt Q9UPZ9); conditions: ICK FRET-Lantha SP; Test Conc(μM) 1
kinases [2] = biological target: kinases (Homo sapiens, UniProt Q8TD19); conditions: NEK9 *Mn* FRET-Z-Lyte SP; Test Conc(μM):ATP Conc(μM) 1:100
kinases (Homo sapiens, UniProt Q8TD19), sequence (Q8TD19 whole entry): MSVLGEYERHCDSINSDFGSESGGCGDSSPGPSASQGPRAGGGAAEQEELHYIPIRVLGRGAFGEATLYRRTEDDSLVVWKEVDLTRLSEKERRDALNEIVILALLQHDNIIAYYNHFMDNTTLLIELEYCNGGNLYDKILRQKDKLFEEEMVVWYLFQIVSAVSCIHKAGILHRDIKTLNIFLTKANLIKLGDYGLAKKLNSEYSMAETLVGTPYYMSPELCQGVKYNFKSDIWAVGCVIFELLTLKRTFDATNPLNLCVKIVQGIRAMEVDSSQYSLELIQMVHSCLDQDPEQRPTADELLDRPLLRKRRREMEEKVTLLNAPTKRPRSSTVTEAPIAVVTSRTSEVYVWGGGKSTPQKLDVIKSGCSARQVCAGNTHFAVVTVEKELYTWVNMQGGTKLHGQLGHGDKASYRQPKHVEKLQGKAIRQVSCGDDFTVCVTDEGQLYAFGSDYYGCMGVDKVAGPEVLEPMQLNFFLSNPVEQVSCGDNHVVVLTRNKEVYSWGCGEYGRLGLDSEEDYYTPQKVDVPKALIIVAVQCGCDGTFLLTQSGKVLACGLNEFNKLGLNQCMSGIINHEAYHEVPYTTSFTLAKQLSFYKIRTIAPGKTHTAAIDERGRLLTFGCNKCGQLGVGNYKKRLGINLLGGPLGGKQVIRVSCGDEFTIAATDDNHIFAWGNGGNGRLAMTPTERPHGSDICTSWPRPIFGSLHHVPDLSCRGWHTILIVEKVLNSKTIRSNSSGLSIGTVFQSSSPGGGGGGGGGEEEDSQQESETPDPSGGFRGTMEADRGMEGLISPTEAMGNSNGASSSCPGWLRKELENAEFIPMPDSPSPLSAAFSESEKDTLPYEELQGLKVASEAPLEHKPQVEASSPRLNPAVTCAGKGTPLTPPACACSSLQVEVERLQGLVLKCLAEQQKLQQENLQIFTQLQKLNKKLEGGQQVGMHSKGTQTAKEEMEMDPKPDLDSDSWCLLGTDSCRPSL

kinases [3] = biological target: kinases (Homo sapiens, UniProt P07949); conditions: RET Hu Phos FRET-Z-Lyte SP; Test Conc(μM):ATP Conc(μM) 1:10
kinases [4] = biological target: kinases (Homo sapiens, UniProt Q8IW41); conditions: MAPKAPK5 (PRAK) FRET-Z-Lyte SP; Test Conc(μM):ATP Conc(μM) 1:10
kinases (Homo sapiens, UniProt Q8IW41), sequence (Q8IW41 whole entry): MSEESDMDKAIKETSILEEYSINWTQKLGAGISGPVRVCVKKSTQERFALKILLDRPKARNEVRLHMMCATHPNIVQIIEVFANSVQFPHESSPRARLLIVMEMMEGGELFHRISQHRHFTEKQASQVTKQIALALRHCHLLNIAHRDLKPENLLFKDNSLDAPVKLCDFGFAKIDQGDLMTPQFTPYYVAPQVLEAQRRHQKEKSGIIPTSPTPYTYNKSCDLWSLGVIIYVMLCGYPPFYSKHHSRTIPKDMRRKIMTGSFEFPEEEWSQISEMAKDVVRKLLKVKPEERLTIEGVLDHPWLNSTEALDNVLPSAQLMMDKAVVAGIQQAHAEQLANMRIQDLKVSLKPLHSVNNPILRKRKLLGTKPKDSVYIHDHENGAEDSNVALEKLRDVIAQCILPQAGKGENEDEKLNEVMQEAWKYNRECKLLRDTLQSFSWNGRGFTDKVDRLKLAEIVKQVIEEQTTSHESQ

kinases [5] = biological target: kinases (Homo sapiens, UniProt P00533); conditions: EGFR (ErbB1) *Mn* Z-Lyte SP; Test Conc(μM):ATP Conc(μM) 1:10
kinases [6] = biological target: kinases (Homo sapiens, UniProt P35626); conditions: ADRBK2 (GRK3) FRET-Z-Lyte SP; Test Conc(μM):ATP Conc(μM) 1:10
kinases [7] = biological target: kinases (Homo sapiens, UniProt Q8NEV4); conditions: MYO3A (MYO3 alpha) Lantha SP; Test Conc(μM) 1
kinases [8] = biological target: kinases (Homo sapiens, UniProt P09769); conditions: FGR FRET-Z-Lyte SP; Test Conc(μM):ATP Conc(μM) 1:10
kinases [9] = biological target: kinases (Homo sapiens, UniProt Q13554); conditions: CAMK2B FRET-Z-Lyte SP; Test Conc(μM):ATP Conc(μM) 1:75
kinases [10] = biological target: kinases (Homo sapiens, UniProt Q16644); conditions: MAPKAPK3 FRET-Z-Lyte SP; Test Conc(μM):ATP Conc(μM) 1:200
kinases [11] = biological target: kinases (Homo sapiens, UniProt Q9Y2H1); conditions: STK38L (NDR2) FRET-Lantha SP; Test Conc(μM) 1
kinases [12] = biological target: kinases (Homo sapiens, UniProt Q9UKE5); conditions: TNIK FRET-Lantha SP; Test Conc(μM) 1
kinases [13] = biological target: kinases (Homo sapiens, UniProt P41279); conditions: MAP3K8 (COT) Cascade Z-Lyte SP; Test Conc(μM):ATP Conc(μM) 1:100
kinases (Homo sapiens, UniProt P41279), sequence (P41279 whole entry): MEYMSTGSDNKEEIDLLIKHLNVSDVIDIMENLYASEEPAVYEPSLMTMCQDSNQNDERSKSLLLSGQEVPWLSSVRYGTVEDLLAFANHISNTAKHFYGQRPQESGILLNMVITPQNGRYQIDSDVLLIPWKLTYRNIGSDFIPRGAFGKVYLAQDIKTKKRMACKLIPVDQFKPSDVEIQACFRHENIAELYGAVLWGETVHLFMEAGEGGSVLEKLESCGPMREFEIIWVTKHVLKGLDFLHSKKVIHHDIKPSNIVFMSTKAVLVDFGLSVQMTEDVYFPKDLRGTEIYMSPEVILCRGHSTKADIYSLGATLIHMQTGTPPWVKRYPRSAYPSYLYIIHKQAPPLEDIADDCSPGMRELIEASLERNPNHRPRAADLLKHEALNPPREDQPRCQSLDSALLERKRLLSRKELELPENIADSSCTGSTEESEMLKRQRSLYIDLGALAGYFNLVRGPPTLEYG

kinases [14] = biological target: kinases (Homo sapiens, UniProt P35968); conditions: KDR (VEGFR2) FRET-Z-Lyte SP; Test Conc(μM):ATP Conc(μM) 1:75
kinases [15] = biological target: kinases (Homo sapiens, UniProt Q32MK0); conditions: MYLK3 Hu Bind FRET-Lantha SP; Test Conc(μM) 1
kinases [16] = biological target: kinases (Homo sapiens, UniProt Q9UPE1); conditions: STK23 (MSSK1) FRET-Z-Lyte SP; Test Conc(μM):ATP Conc(μM) 1:75
kinases [17] = biological target: kinases (Homo sapiens, UniProt Q9BUB5); conditions: MKNK1 (MNK1) *Mn* Z-Lyte SP; Test Conc(μM):ATP Conc(μM) 1:100
kinases [18] = biological target: kinases (Homo sapiens, UniProt Q07002); conditions: CDK18/cyclin Y FRET-Z-Lyte SP; Test Conc(μM):ATP Conc(μM) 1:75
kinases [19] = biological target: kinases (Homo sapiens, UniProt P51817); conditions: PRKX FRET-Z-Lyte SP; Test Conc(μM):ATP Conc(μM) 1:10
kinases [20] = biological target: kinases (Homo sapiens, UniProt O60674)
kinases (Homo sapiens, UniProt O60674), sequence (O60674 whole entry): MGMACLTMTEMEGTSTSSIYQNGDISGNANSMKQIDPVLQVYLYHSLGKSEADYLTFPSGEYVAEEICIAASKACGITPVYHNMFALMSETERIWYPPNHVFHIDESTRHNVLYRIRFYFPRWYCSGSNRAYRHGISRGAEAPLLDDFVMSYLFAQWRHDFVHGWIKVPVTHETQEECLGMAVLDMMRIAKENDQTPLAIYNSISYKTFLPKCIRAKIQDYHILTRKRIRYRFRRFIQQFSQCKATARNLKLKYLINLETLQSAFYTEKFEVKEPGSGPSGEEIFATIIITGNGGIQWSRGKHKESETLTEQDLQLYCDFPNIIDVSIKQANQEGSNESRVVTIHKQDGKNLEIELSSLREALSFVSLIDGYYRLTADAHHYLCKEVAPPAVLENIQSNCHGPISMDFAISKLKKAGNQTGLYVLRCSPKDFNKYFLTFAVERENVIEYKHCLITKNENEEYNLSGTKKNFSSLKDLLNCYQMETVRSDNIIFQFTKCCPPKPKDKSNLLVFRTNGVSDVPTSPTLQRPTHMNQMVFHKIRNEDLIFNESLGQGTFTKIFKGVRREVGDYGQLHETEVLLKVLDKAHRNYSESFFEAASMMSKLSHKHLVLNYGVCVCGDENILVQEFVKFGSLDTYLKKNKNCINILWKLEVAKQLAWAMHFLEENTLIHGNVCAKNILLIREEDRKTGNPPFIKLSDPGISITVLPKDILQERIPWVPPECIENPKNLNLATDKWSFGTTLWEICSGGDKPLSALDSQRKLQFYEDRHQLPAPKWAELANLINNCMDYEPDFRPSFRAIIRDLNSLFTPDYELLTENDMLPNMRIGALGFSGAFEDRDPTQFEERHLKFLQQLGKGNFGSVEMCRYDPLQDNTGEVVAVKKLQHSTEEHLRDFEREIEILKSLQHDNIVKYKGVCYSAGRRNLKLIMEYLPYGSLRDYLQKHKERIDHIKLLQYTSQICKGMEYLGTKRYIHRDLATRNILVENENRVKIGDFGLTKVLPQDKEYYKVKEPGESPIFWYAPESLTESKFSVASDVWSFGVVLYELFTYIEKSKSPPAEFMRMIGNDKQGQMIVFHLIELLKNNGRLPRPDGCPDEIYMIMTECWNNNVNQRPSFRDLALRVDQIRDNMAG

kinases [21] = biological target: kinases (Homo sapiens, UniProt Q9UL54); conditions: TAOK2 (TAO1) FRET-Z-Lyte SP
kinases (Homo sapiens, UniProt Q9UL54), sequence (Q9UL54 whole entry): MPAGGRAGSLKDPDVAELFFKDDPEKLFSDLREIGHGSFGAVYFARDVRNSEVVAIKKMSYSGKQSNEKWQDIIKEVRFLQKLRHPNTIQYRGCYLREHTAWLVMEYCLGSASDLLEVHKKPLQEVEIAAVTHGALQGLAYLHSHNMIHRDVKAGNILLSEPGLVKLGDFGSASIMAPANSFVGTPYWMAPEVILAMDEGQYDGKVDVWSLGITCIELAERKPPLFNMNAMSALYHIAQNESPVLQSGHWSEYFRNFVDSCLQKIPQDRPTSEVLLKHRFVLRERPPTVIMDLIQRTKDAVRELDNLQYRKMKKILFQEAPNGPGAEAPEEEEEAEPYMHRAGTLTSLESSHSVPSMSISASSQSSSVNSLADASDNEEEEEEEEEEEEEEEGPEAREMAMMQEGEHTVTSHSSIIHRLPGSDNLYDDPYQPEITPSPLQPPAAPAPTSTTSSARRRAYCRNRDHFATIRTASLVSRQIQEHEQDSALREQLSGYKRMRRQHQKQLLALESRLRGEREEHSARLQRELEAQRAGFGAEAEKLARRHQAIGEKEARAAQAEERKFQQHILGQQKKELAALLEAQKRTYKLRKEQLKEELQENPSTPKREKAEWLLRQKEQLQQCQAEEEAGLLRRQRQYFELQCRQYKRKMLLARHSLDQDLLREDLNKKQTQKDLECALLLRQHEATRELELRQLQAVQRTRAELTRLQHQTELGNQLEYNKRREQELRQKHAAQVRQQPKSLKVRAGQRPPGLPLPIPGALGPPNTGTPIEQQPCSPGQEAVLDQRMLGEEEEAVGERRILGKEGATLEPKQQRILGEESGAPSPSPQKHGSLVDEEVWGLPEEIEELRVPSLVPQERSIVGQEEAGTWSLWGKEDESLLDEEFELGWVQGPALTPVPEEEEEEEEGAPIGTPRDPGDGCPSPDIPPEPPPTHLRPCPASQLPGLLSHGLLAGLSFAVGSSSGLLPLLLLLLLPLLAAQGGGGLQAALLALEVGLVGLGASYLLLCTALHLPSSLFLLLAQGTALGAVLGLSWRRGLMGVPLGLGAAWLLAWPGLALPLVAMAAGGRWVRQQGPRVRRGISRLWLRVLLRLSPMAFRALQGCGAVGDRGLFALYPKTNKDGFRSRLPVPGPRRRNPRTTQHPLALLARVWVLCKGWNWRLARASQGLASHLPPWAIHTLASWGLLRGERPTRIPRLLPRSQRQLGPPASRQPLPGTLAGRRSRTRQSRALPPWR

kinases [22] = biological target: kinases (Homo sapiens, UniProt Q96PY6); conditions: NEK1 FRET-Z-Lyte SP; ATP Conc(μM):Test Conc(μM) 1:100
kinases [23] = biological target: kinases (Homo sapiens, UniProt Q06187); conditions: BTK FRET-Z-Lyte SP; Test Conc(μM):ATP Conc(μM) 1:25
kinases [24] = biological target: kinases (Homo sapiens, UniProt P07332); conditions: FES (FPS) FRET-Z-Lyte SP; Test Conc(μM):ATP Conc(μM) 1:25
kinases [25] = biological target: kinases (Homo sapiens, UniProt P11309); conditions: PIM1 FRET-Z-Lyte SP; Test Conc(μM):ATP Conc(μM) 1:400
kinases [26] = biological target: kinases (Homo sapiens, UniProt Q16512); conditions: PKN1 (PRK1) FRET-Z-Lyte SP; Test Conc(μM):ATP Conc(μM) 1:50
kinases [27] = biological target: kinases (Homo sapiens, UniProt Q04759); conditions: PRKCQ (PKC theta) Z-Lyte SP; Test Conc(μM):ATP Conc(μM) 1:100
kinases [28] = biological target: kinases (Homo sapiens, UniProt Q15349); conditions: RPS6KA2 (RSK3) FRET-Z-Lyte SP; Test Conc(μM):ATP Conc(μM) 1:10
[29] = JAK2 FRET-Z-Lyte SP, Test Conc(μM):ATP Conc(μM) 1:25

kinases (Homo sapiens, UniProt Q9UPZ9), sequence (Q9UPZ9 whole entry): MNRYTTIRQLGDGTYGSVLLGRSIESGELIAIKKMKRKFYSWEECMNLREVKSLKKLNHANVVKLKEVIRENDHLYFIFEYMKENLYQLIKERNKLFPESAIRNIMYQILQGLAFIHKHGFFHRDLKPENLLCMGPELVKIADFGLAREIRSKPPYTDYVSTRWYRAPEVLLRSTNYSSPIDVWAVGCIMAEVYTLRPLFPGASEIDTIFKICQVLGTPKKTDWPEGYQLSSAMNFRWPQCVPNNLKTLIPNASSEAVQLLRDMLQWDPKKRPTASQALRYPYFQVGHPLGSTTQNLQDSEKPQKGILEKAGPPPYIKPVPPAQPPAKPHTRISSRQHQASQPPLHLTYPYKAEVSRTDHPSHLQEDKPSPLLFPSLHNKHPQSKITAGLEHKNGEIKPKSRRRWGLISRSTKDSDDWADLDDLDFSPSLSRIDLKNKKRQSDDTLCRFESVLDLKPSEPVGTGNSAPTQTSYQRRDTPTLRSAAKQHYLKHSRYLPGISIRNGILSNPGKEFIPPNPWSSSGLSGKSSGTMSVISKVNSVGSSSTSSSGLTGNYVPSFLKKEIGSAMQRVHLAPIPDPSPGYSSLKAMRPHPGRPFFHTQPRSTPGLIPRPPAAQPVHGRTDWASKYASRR

SMILES	Mean Inhib (%) (kinases [1])	Mean Inhib (%) (kinases [2])	Mean Inhib (%) (kinases [3])	Mean Inhib (%) (kinases [4])	Mean Inhib (%) (kinases [5])	Mean Inhib (%) (kinases [6])	Mean Inhib (%) (kinases [7])	Mean Inhib (%) (kinases [8])	Mean Inhib (%) (kinases [9])	Mean Inhib (%) (kinases [10])	Mean Inhib (%) (kinases [11])	Mean Inhib (%) (kinases [12])	Mean Inhib (%) (kinases [13])	Mean Inhib (%) (kinases [14])	Mean Inhib (%) (kinases [15])	Mean Inhib (%) (kinases [16])	Mean Inhib (%) (kinases [17])	Mean Inhib (%) (kinases [18])	Mean Inhib (%) (kinases [19])	Mean Inhib (%) (kinases [20]; [29])	also measured
Cc1ccc(NC(=O)c2ccnc(N3CCOCC3)c2)cc1Nc1ccnc(N2CC(C)OC(C)C2)n1 (stereo not shown) [compound 3]	0.3	1.8	22.8	−1.3	1.5	0.7	10.8	9.4	4.5	1.7	15.6	4.1	6.1	3.2	4.5	4.3	5.3	2.7	−3.2	−7.7	Mean Inhib (%) (kinases [20]; JAK2 JH1 JH2 FRET-Z-Lyte SP, ATP Conc(μM):Test Conc(μM) 1:25): −0.1%; Mean Inhib (%) (kinases [21]; Test Conc(μM):ATP Conc(μM) 1:300): −3.6%; Mean Inhib (%) (kinases [22]): 7.0%; Mean Inhib (%) (kinases [23]): 6.7%; Mean Inhib (%) (kinases [24]): 10.0%; Mean Inhib (%) (kinases [25]): 7.8%; Mean Inhib (%) (kinases [26]): −5.8%; Mean Inhib (%) (kinases [27]): 15.6%; Mean Inhib (%) (kinases [28]): 9.0%
Cc1cc(Oc2ccnc(Nc3ccc(S(N)(=O)=O)cc3)c2)c(-c2ccccn2)nc1C [compound 65]	6.0	−4.1	31.0	1.9	−1.9	−2.5	1.6	67.3	11.4	−1.3	5.5	58.4	21.2	3.8	0.8	−4.8	1.5	1.2	1.8	4.7	Mean Inhib (%) (kinases [20]; JAK2 JH1 JH2 FRET-Z-Lyte SP, ATP Conc(μM):Test Conc(μM) 1:50): −3.9%; Mean Inhib (%) (kinases [21]; Test Conc(μM):ATP Conc(μM) 0.25): 13.7%; Mean Inhib (%) (kinases [22]): 0.2%; Mean Inhib (%) (kinases [23]): 29.9%; Mean Inhib (%) (kinases [24]): 6.3%; Mean Inhib (%) (kinases [25]): 3.8%; Mean Inhib (%) (kinases [26]): 0.4%; Mean Inhib (%) (kinases [27]): 5.9%; Mean Inhib (%) (kinases [28]): 0.2%
